# System: 299254-011-R-J1-PDC complex spheroid viability
# Test: Anticancer human tumor 299254-011-R-J1-PDC patient-derived melanoma cell line growth inhibition [POLQ]
# Details: for IC50: curve of first compound; for viability, T/C: stronger effect = lower value
# Method in brief: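 Patient-derived tumour cells were co-cultured with HUVEC and mesenchymal stem cells as multicellular spheroids at 37 °C. They were treated with POLQ inhibitors (novobiocin, ART-558, RP6685) alone or combined with other agents. Top concentrations were at or near clinical Cmax (otherwise 10 microM; SN-38 at 1 microM), decreasing in half-log steps.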
# [1] = second compound 0.0316 µM, first compound 0.0316 µM
# [2] = second compound 0.0316 µM, first compound 0.1 µM
# [3] = second compound 0.0316 µM, first compound 0.316 µM
# [4] = second compound 0.0316 µM, first compound 1 µM
# [5] = second compound 0.0316 µM, first compound 3.16 µM
# [6] = second compound 0.0316 µM, first compound 10 µM
# [7] = second compound 0.1 µM, first compound 0.0316 µM
# [8] = second compound 0.1 µM, first compound 0.1 µM
# [9] = second compound 0.1 µM, first compound 0.316 µM
# [10] = second compound 0.1 µM, first compound 1 µM
# [11] = second compound 0.1 µM, first compound 3.16 µM
# [12] = second compound 0.1 µM, first compound 10 µM
# [13] = second compound 0.316 µM, first compound 0.0316 µM
# [14] = second compound 0.316 µM, first compound 0.1 µM
# [15] = second compound 0.316 µM, first compound 0.316 µM
# [16] = second compound 0.316 µM, first compound 1 µM
# [17] = second compound 0.316 µM, first compound 3.16 µM
# [18] = second compound 0.316 µM, first compound 10 µM
# [19] = second compound 1 µM, first compound 0.0316 µM
# [20] = second compound 1 µM, first compound 0.1 µM
# [21] = second compound 1 µM, first compound 0.316 µM
# [22] = second compound 1 µM, first compound 1 µM
# [23] = second compound 1 µM, first compound 3.16 µM
# [24] = second compound 1 µM, first compound 10 µM
# [25] = second compound 3.16 µM, first compound 0.0316 µM
# [26] = second compound 3.16 µM, first compound 0.1 µM
# [27] = second compound 3.16 µM, first compound 0.316 µM
# [28] = second compound 3.16 µM, first compound 1 µM
# [29] = second compound 3.16 µM, first compound 3.16 µM
# [30] = second compound 3.16 µM, first compound 10 µM
# [31] = second compound 10 µM, first compound 0.0316 µM
# [32] = second compound 10 µM, first compound 0.1 µM
# [33] = second compound 10 µM, first compound 0.316 µM
# [34] = second compound 10 µM, first compound 1 µM
# [35] = second compound 10 µM, first compound 3.16 µM
# [36] = second compound 10 µM, first compound 10 µM
# 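Note: spheroids exposed to drugs for one week before measurement.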
# 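Throughout, for viability, T/C: percent viability relative to DMSO vehicle control taken as 100%.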
compound,measurement,setting,value
CC1COCCN1c1cc(C2(S(C)(=N)=O)CC2)nc(-c2ccnc3[nH]ccc23)n1 (stereo not drawn) + Nc1ccc(C#CCN(C(=O)Cc2ncc(C(F)(F)F)cc2C(F)(F)F)c2ccc(F)cc2)nn1,IC50,second compound 0.0316 µM,8.31 µM
same,IC50,second compound 0.1 µM,5.12 µM
same,IC50,second compound 0.316 µM,5.54 µM
same,IC50,second compound 1 µM,5.56 µM
same,IC50,second compound 3.16 µM,3.74 µM
same,IC50,second compound 10 µM,2.9 µM
same,"viability, T/C",[1],123%
same,"viability, T/C",[2],89.2%
same,"viability, T/C",[3],110%
same,"viability, T/C",[4],84.3%
same,"viability, T/C",[5],63.9%
same,"viability, T/C",[6],47%
same,"viability, T/C",[7],117%
same,"viability, T/C",[8],117%
same,"viability, T/C",[9],100%
same,"viability, T/C",[10],83.8%
same,"viability, T/C",[11],56.3%
same,"viability, T/C",[12],40.3%
same,"viability, T/C",[13],107%
same,"viability, T/C",[14],110%
same,"viability, T/C",[15],87.3%
same,"viability, T/C",[16],89.2%
same,"viability, T/C",[17],63%
same,"viability, T/C",[18],34.9%
same,"viability, T/C",[19],105%
same,"viability, T/C",[20],111%
same,"viability, T/C",[21],94.4%
same,"viability, T/C",[22],94.8%
same,"viability, T/C",[23],59.1%
same,"viability, T/C",[24],39.8%
same,"viability, T/C",[25],99%
same,"viability, T/C",[26],91.8%
same,"viability, T/C",[27],102%
same,"viability, T/C",[28],82.1%
same,"viability, T/C",[29],53.2%
same,"viability, T/C",[30],35.5%
same,"viability, T/C",[31],91.5%
same,"viability, T/C",[32],99.2%
same,"viability, T/C",[33],84.8%
same,"viability, T/C",[34],76%
same,"viability, T/C",[35],46.7%
same,"viability, T/C",[36],37.1%
CC[C@@]1(O)C(=O)OCc2c1cc1n(c2=O)Cc2cc3c(CN(C)C)c(O)ccc3nc2-1 + COC1C(OC(N)=O)C(O)C(Oc2ccc3c(O)c(NC(=O)c4ccc(O)c(CC=C(C)C)c4)c(=O)oc3c2C)OC1(C)C,IC50,second compound 0.0316 µM,> 0.1 µM
same,IC50,second compound 0.1 µM,> 0.1 µM
same,IC50,second compound 0.316 µM,> 0.1 µM
same,IC50,second compound 1 µM,> 0.1 µM
same,IC50,second compound 3.16 µM,> 0.1 µM
same,IC50,second compound 10 µM,> 0.1 µM
same,"viability, T/C","second compound 0.0316 µM, first compound 0.000316 µM",104%
same,"viability, T/C","second compound 0.0316 µM, first compound 0.001 µM",95.4%
same,"viability, T/C","second compound 0.0316 µM, first compound 0.00316 µM",123%
same,"viability, T/C","second compound 0.0316 µM, first compound 0.01 µM",101%
same,"viability, T/C",[1],112%
same,"viability, T/C",[2],76%
same,"viability, T/C","second compound 0.1 µM, first compound 0.000316 µM",111%
same,"viability, T/C","second compound 0.1 µM, first compound 0.001 µM",105%
same,"viability, T/C","second compound 0.1 µM, first compound 0.00316 µM",107%
same,"viability, T/C","second compound 0.1 µM, first compound 0.01 µM",110%
same,"viability, T/C",[7],114%
same,"viability, T/C",[8],83.5%
same,"viability, T/C","second compound 0.316 µM, first compound 0.000316 µM",102%
same,"viability, T/C","second compound 0.316 µM, first compound 0.001 µM",120%
same,"viability, T/C","second compound 0.316 µM, first compound 0.00316 µM",103%
same,"viability, T/C","second compound 0.316 µM, first compound 0.01 µM",102%
same,"viability, T/C",[13],120%
same,"viability, T/C",[14],74.5%
same,"viability, T/C","second compound 1 µM, first compound 0.000316 µM",104%
same,"viability, T/C","second compound 1 µM, first compound 0.001 µM",106%
same,"viability, T/C","second compound 1 µM, first compound 0.00316 µM",111%
same,"viability, T/C","second compound 1 µM, first compound 0.01 µM",110%
same,"viability, T/C",[19],110%
same,"viability, T/C",[20],67.6%
same,"viability, T/C","second compound 3.16 µM, first compound 0.000316 µM",115%
same,"viability, T/C","second compound 3.16 µM, first compound 0.001 µM",104%
same,"viability, T/C","second compound 3.16 µM, first compound 0.00316 µM",93.6%
same,"viability, T/C","second compound 3.16 µM, first compound 0.01 µM",105%
same,"viability, T/C",[25],105%
same,"viability, T/C",[26],84.6%
same,"viability, T/C","second compound 10 µM, first compound 0.000316 µM",112%
same,"viability, T/C","second compound 10 µM, first compound 0.001 µM",111%
same,"viability, T/C","second compound 10 µM, first compound 0.00316 µM",112%
same,"viability, T/C","second compound 10 µM, first compound 0.01 µM",102%
same,"viability, T/C",[31],110%
same,"viability, T/C",[32],87.1%
O=C(Nc1ccc(O)c(NS(=O)(=O)c2ccc(F)cc2)c1)c1ccc(-c2ccccc2)cc1 + Nc1ccc(C#CCN(C(=O)Cc2ncc(C(F)(F)F)cc2C(F)(F)F)c2ccc(F)cc2)nn1,IC50,second compound 0.0316 µM,9.16 µM
same,IC50,second compound 0.1 µM,8.49 µM
same,IC50,second compound 0.316 µM,8.65 µM
same,IC50,second compound 1 µM,9.34 µM
same,IC50,second compound 3.16 µM,8.68 µM
same,IC50,second compound 10 µM,> 10 µM
same,"viability, T/C",[1],104%
same,"viability, T/C",[2],119%
same,"viability, T/C",[3],97.4%
same,"viability, T/C",[4],98.2%
same,"viability, T/C",[5],97.3%
same,"viability, T/C",[6],46.1%
same,"viability, T/C",[7],102%
same,"viability, T/C",[8],99.8%
same,"viability, T/C",[9],91.4%
same,"viability, T/C",[10],101%
same,"viability, T/C",[11],95.6%
same,"viability, T/C",[12],42.4%
same,"viability, T/C",[13],108%
same,"viability, T/C",[14],88.4%
same,"viability, T/C",[15],107%
same,"viability, T/C",[16],91.8%
same,"viability, T/C",[17],85.9%
same,"viability, T/C",[18],44.9%
same,"viability, T/C",[19],108%
same,"viability, T/C",[20],94.5%
same,"viability, T/C",[21],95.7%
same,"viability, T/C",[22],97.5%
same,"viability, T/C",[23],87.3%
same,"viability, T/C",[24],47.2%
same,"viability, T/C",[25],106%
same,"viability, T/C",[26],92.1%
same,"viability, T/C",[27],92.7%
same,"viability, T/C",[28],86.8%
same,"viability, T/C",[29],79.9%
same,"viability, T/C",[30],45.1%
same,"viability, T/C",[31],83.2%
same,"viability, T/C",[32],92.4%
same,"viability, T/C",[33],88%
same,"viability, T/C",[34],76%
same,"viability, T/C",[35],74.7%
same,"viability, T/C",[36],50.6%
CC1COCCN1c1cc(C2(O)CC3CCC(C2)O3)c2cnn(-c3ccn[nH]3)c2n1 (stereo not drawn) + COC1C(OC(N)=O)C(O)C(Oc2ccc3c(O)c(NC(=O)c4ccc(O)c(CC=C(C)C)c4)c(=O)oc3c2C)OC1(C)C,IC50,second compound 0.0316 µM,0.136 µM
same,IC50,second compound 0.1 µM,0.182 µM
same,IC50,second compound 0.316 µM,0.206 µM
same,IC50,second compound 1 µM,0.163 µM
same,IC50,second compound 3.16 µM,0.159 µM
same,IC50,second compound 10 µM,0.176 µM
same,"viability, T/C",[1],102%
same,"viability, T/C",[2],53.5%
same,"viability, T/C",[3],35.8%
same,"viability, T/C",[4],20.7%
same,"viability, T/C",[5],14.8%
same,"viability, T/C",[6],11.1%
same,"viability, T/C",[7],86.4%
same,"viability, T/C",[8],64.8%
same,"viability, T/C",[9],36.6%
same,"viability, T/C",[10],18.9%
same,"viability, T/C",[11],16.8%
same,"viability, T/C",[12],11.5%
same,"viability, T/C",[13],88.9%
same,"viability, T/C",[14],75.6%
same,"viability, T/C",[15],34%
same,"viability, T/C",[16],20.4%
same,"viability, T/C",[17],14%
same,"viability, T/C",[18],11.6%
same,"viability, T/C",[19],109%
same,"viability, T/C",[20],56.5%
same,"viability, T/C",[21],37.4%
same,"viability, T/C",[22],27.1%
same,"viability, T/C",[23],15.6%
same,"viability, T/C",[24],10.2%
same,"viability, T/C",[25],91.5%
same,"viability, T/C",[26],61.1%
same,"viability, T/C",[27],33.1%
same,"viability, T/C",[28],20.4%
same,"viability, T/C",[29],13%
same,"viability, T/C",[30],11.1%
same,"viability, T/C",[31],87.6%
same,"viability, T/C",[32],60.5%
same,"viability, T/C",[33],40.7%
same,"viability, T/C",[34],17.9%
same,"viability, T/C",[35],16.6%
same,"viability, T/C",[36],10.2%

# — PubChem BioAssay AID1963849 (Molecular Pharmacology Branch, DTP, NCI, 2024)
